Measured values taken from patent US20250186623A1, “EXPRESSION SYSTEM FOR THE TREATMENT OF CANCER” (FUNDACION PARA LA INVESTIGACION MEDICA APLICADA, priority 2022, published 2025).
Read-outs that look alike come from different tables or passages of the source.

Assays:
MC38 tumors = test: Synergism of DMXAA and radiotherapy in a humanized mouse model in vivo, cytokine ELISA; set-up: species or system STING deficient C57 mice (STING KO); settings: 6 h after DMXAA 20 mg/kg, irradiated tumors
hSTINGmut [1] = target: T1, hSTINGmut (Homo sapiens, UniProt Q86WV6, G230I/H232R/Q266I/S162A); test: DMXAA mediated expression of STING-derived cytokines (qPCR); type: cell-based; settings: hSTINGmut-transduced MC38 and Hep2G cells; 50 μg/mL DMXAA, 3 h or 6 h
T1 construct: expressed in transfected cells
Experimental: (§1) As a readout, the expression of STING-derived cytokines was measured by qPCR.
(§2) To this end, MC38 and Hep2G cells have been transduced with lentiviruses encoding luciferase, hSTINGwt, hSTINGmut to obtain stable cell lines as described above or were not transduced with any lentivirus (no vector). Respective cells were seeded in 24-well plates at a density of 750 cells/mm^2 in growth medium. […] Cells were harvested and prepared for qPCR measurements as described above. The expression of the cytokines IFN-β, TNF-α, IL-6, CXCL9 and CXCL10 were measured for either experimental group and expression levels relative to controls (no vector) were quantified.

hSTINGwt = target: T2, hSTINGwt (Homo sapiens, UniProt Q86WV6, H232R); test: as above; type: cell-based; settings: other groups (hSTINGwt, luciferase, no vector); 50 μg/mL DMXAA
T2 construct: expressed in transfected cells
Experimental: as §1, §2

[2] = target: hSTING[R]-S162A/G230I/Q266I (Homo sapiens, UniProt Q86WV6, G230I/H232R/Q266I/S162A); settings: cited from earlier work
HEK293 cells = test: Synergism proof of principle III: IFN-β and IL-12 mRNA by qPCR; type: cell-based, human; settings: for IFN-β expression levels: hSTINGmut expressing cells
Excerpt: To this end, HEK293 cells received 8 Gy or 0 Gy as described above for MC38 cells and then were co-transduced with AAV8-hSTINGmut (1×10^5 viral genomes), AAV8-ISREx4-IL12miR122T (1×10^5 viral genomes) and/or AAV-GFP (1×10^5 viral genomes) as indicated in the figure.

[3] = human, in vivo; cited from earlier work
MC38 cells [4] = test: Synergism proof of principle I: IFN-β mRNA by qPCR; type: cell-based, murine; settings: 8 Gy + DMXAA 50 μg/mL, without exogenic hSTINGmut
Experimental: To this end, MC38 cells received 8 Gy or 0 Gy as described above (example 7). Cells were seeded thereafter at 750 cells/mm^2 density and were then either mock-transduced or transduced with AAV8-hSTINGmut (1×10^5 viral genomes/cell). For cell transduction 8.5×10^9 viral genomes of AAV8-hSTINGmut from known concentration stock solutions, were resuspended in 50 μl RPMI 2% FBS. The resuspended viral particles were then added to the wells where the cells were seeded.

MC38 cells [5] = test: Synergism proof of principle II: IL-12 mRNA by qPCR; type: cell-based, murine; settings: cells transduced with AAV8-hSTINGmut plus AAV8-ISREx4-IL12miR122T
Experimental: To this end, MC38 cells received 8 Gy or 0 Gy as described above and then were co-transduced with AAV8-hSTINGmut (1×10^5 viral genomes/cell) and AAV8-ISREx4-IL12miR122T (0.5×10^5 viral genomes/cell) as described above. For cell transduction, 8.5×10^9 viral genomes of AAV8-hSTINGmut and 4.25×10^9 viral genomes of AAV8-scIL12-miR122T, from known concentration stock solutions, were resuspended, each one, in 50 μl RPMI 2% FBS. The resuspended viral particles were then added to the wells where the cells were seeded. […] The IL-12 mRNA was determined by qPCR as described above (example 3) and expression levels were quantified in reference to non-transduced, non-irradiated cells treated with vehicle.

[6] = tested on: native non-transduced MC38 cells; test: Synergism proof of principle IV: IFN-β protein by ELISA; type: cell-based, murine
Experimental: In addition to the previous experiments, the objective of the fourth experiment was to further investigate the observed synergism between the canonical and non-canonical STING.
To this end, native non-transduced MC38 cells received 0 Gy, 2 Gy or 8 Gy as described above. […] The IFN-p protein levels were determined by ELISA as described above.

[7] = tested on: IFN-β protein levels in the serum
Experimental: C57 wild type mice, aged 6 to 10 weeks, were injected intravenously with an AAV8 vector encoding either hSTINGmut (AAV8-hSTINGmut, 1×10^11 viral genomes) or as a control GFP (AAV8-GFP, 1.5×10^11 viral genomes).

hSTINGmut [8] = target: T1, hSTINGmut; test: Time-course expression of STING-derived cytokines upon DMXAA treatment (qPCR); type: cell-based; settings: MC38 and Hep2G cells encoding hSTINGmut; 50 μg/mL DMXAA; any given timepoint
Experimental: The objective of this experiment was to examine the time-course of STING-derived cytokine expression upon DMXAA treatment. As a readout, the expression of STING-derived cytokines was measured by qPCR.
To this end, stable cell lines of MC38 and Hep2G cells encoding hSTINGmut have been obtained as described above. […] Cells were harvested and prepared for qPCR measurements as described above.

human STING = human STING (Homo sapiens, UniProt Q86WV6); settings: cited from earlier work
murine STING = target: T3, murine STING (Mus musculus, UniProt Q3TBT3); settings: cited from earlier work
T3 sequence (Q3TBT3 1-378): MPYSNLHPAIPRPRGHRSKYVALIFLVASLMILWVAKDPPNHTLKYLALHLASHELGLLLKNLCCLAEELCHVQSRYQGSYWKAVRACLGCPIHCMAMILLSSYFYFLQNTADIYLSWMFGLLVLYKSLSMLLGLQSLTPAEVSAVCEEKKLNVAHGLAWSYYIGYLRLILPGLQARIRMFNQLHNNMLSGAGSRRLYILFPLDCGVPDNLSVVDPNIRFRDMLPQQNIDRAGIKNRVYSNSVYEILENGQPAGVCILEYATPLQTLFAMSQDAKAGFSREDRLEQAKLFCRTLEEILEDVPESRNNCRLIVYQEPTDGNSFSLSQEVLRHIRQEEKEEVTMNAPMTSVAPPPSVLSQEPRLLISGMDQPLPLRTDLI

T1 sequence (Q86WV6 whole entry S162A/G230I/H232R/Q266I): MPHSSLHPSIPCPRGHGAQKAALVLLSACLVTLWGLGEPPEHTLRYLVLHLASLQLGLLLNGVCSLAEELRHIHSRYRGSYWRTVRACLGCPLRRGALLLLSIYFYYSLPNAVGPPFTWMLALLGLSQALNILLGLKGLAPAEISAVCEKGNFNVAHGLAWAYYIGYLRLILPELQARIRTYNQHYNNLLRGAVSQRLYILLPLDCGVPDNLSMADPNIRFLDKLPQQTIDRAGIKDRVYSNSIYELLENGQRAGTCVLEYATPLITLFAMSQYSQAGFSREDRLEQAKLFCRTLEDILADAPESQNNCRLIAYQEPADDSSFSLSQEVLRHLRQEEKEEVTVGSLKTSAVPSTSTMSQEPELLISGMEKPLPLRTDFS
hSTING[R]-S162A/G230I/Q266I, sequence (Q86WV6 whole entry S162A/G230I/H232R/Q266I): as above
T2 sequence (Q86WV6 whole entry H232R): as the sequence (Q86WV6 whole entry S162A/G230I/H232R/Q266I) above, with A162S, I230G, I266Q counted along it
human STING, sequence (Q86WV6 whole entry H232R): as the sequence (Q86WV6 whole entry S162A/G230I/H232R/Q266I) above, with A162S, I230G, I266Q counted along it

## Cc1ccc2c(=O)c3cccc(CC(=O)O)c3oc2c1C [DMXAA, 5,6-Dimethylxanthenone-4-acetic acid]
MC38 tumors
  intratumor levels of IL-12: increased significantly
hSTINGmut [1]
  expression of the cytokines IFN-β, TNF-α, IL-6, CXCL9 and CXCL10: elevated
hSTINGwt
  expression of the cytokines IFN-β, TNF-α, IL-6, CXCL9 and CXCL10: no significant alteration
[2]
  activation of hSTING[R]-S162A/G230I/Q266I: highly activated
HEK293 cells; ISREx4-IL12miR122T expressing cells, radiation plus further DMXAA treatment
  IL-12 expression levels: significant increase
HEK293 cells; DMXAA 50 μg/mL
  IFN-β expression levels: upregulated
HEK293 cells; DMXAA plus additional irradiation 8 Gy
  IFN-β expression levels: significantly increased
[3]
  efficacy in clinical trials: lack of efficacy
  tolerability in clinical trials: well tolerated and only displayed minor side effects
MC38 cells [4]
  IFN-β mRNA expression: increase in IFN-β expression
MC38 cells [5]; 8 Gy
  IL-12 mRNA levels: strong elevation
MC38 cells [5]; non-irradiated
  IL-12 mRNA levels: slight elevation
[6]; 8 Gy plus DMXAA (different doses), 24 h or 48 h
  IFN-β production: exceeding the sum of those obtained with radiation alone and DMXAA alone
[6]; 8 Gy, DMXAA 50 μg/mL 24 h later, collected after another 24 h
  IFN-β production after a single dose of radiation: enhanced
[7]; 20 mg DMXAA/kg bodyweight i.p., after a first injection
  serum IFN-β levels in AAV8-GFP transduced control animals: elevation
[7]; 20 mg DMXAA/kg, AAV8-hSTINGmut and AAV8-GFP mice, systemic STING stimulation
  toxicity and mortality: high toxicity and mortality
[7]; 5 or 10 mg DMXAA/kg bodyweight i.p.
  serum IFN-β levels in AAV8-hSTINGmut transduced mice: very low levels
[7]; 5 or 10 mg DMXAA/kg, AAV8-hSTINGmut transduced mice
  toxicity and mortality: neither cause significant toxicity nor mortality
hSTINGmut [8]
  expression of STING-derived cytokines over time: increase in expression levels
Human STING
  activation of human STING: unable to activate

## O=C(O)Cc1cccc2c(=O)cc(-c3ccccc3)oc12 [FAA, flavone-8-acetic acid]
Murine STING
  activation of murine STING: may also be activated
